In US20250222120A1, “SYNTHESIS OF NOVEL SMALL MOLECULE CARM1 DEGRADERS, COMPOUNDS FORMED THEREBY, AND PHARMACEUTICAL COMPOSITIONS CONTAINING THEM” (Wisconsin Alumni Research Foundation, priority 2024, published 2025):

Legend:
[1] = target: T1, PRMT1 (Homo sapiens, UniProt Q99873); test: Global proteomics of MCF7 cells, PRMT1 level; assay type: cell-based; details: 25 nM, 4 h, versus DMSO
T1 construct: we performed a global quantitative proteomic analysis of MCF7 cells using mass spectrometry; endogenous in cells; host or cells: MCF7
Protocol: Sample preparation for global proteomics analysis. Sample preparation is similar to the previous report (Ma et al. “Strategy Based on Deglycosylation, Multiprotease, and Hydrophilic Interaction Chromatography for Large-Scale Profiling of Protein Methylation” Anal. Chem. 2017, 89 (23), 12909-12917). Briefly, treated MCF7 cells were harvested by washing with PBS buffer (Gibco, pH 7.4) and lysed in RIPA buffer supplemented with protease inhibitors for 20 min, then protein concentration was determined using a BCA Protein Assay Kit (Thermo Pierce, Rockford, IL) per manufacturer instructions. […] The concentrations of the peptide mixture were measured by peptide assay (Thermo Fisher Scientific). […]
LC-MS/MS data acquisition. Samples were analyzed on an Orbitrap Fusion Lumos Tribrid mass spectrometer (Thermo Fisher Scientific) coupled to a Dionex UltiMate 3000 UPLC system. […]
Data analysis. Protein identification and quantification by MaxQuant (version 1.5.3.8) based database searching, using the integrated Andromeda search engine with FDR <1% at peptide and protein levels. […] For label-free protein quantification (LFQ), the MaxQuant LFQ algorithm was used to quantitate the MS signals, and the proteins' intensities were represented in LFQintesnit (Schaab et al. “Analysis of High Accuracy, Quantitative Proteomics Data in the MaxQB Database” Mol. Cell. Proteomics 2012, 11 (3), M111.014068). […]

[2] = system: MCF7 cells; test: Cell proliferation assay, MCF7 cells; assay type: cell-based, human; details: 0.5 μM
[3] = system: MCF10A cells; test: Cell proliferation assay, MCF10A cells; assay type: cell-based, human; details: 0.5 μM

T1 sequence (Q99873 whole entry): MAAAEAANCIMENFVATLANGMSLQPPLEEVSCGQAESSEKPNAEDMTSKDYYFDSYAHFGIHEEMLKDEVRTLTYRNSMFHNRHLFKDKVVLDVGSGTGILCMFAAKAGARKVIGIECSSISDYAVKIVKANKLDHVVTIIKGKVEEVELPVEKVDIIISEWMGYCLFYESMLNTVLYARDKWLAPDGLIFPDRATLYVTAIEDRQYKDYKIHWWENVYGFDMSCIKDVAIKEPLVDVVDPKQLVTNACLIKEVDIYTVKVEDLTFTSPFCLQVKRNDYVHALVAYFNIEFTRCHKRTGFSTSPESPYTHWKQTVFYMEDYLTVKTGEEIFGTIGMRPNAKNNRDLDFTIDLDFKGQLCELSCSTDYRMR

## CNCCN1CCC(c2cc(CN(C)C(=O)c3cccc(Oc4ccc(OCC(=O)N5CCC(CN6CCC(CN7CCN(CC(=O)N[C@H](C(=O)N8C[C@H](O)C[C@H]8C(=O)N[C@@H](C)c8ccc(-c9scnc9C)cc8)C(C)(C)C)CC7)CC6)CC5)cc4)c3)ccn2)CC1 [Compound 3b, (2S,4R)-1-((S)-3,3-dimethyl-2-(2-(4-((1-((1-(2-(4-(3-(methyl((2-(1-(2-(methylamino)ethyl)piperidin-4-yl)pyridin-4-yl)methyl)carbamoyl)phenoxy)phenoxy)acetyl)piperidin-4-yl)methyl)piperidin-4-yl)methyl)piperazin-1-yl)acetamido)butanoyl)-4-hydroxy-N—((S)-1-(4-(4-methylthiazol-5-yl)phenyl)ethyl)pyrrolidine-2-carboxamide]
[1]
  PRMT1 protein level in proteomics: not significantly changed
[2]
  Cell proliferation: not to inhibit cell proliferation
[3]
  Cell proliferation: not to inhibit cell proliferation
